Source: patent publication US8524634B2, “Seed treatment with combinations of pyrethrins/pyrethroids and clothianidin” (priority 2000, dated 2013)

How the values were obtained:
Format in all cases: in vivo
black cutworm larvae [1] = assay: Black cutworm feeding damage on corn: lambda-cyhalothrin seed treatment vs tefluthrin soil granular treatments (Reference Example 1); conditions: for Plant Defol. 3 DAI / Plant Defol. 7 DAI / Plant Defol. 10 DAI: rating 1=no damage, 10=complete defoliation
Protocol: This example compares the efficacy of seed treatment with lambda-cyhalothrin (CAS #91465-08-6) to soil granular treatments with tefluthrin (CAS #79538-32-2) against feeding damage by black cutworm larvae on shoots and foliage.
(§1) A lambda-cyhalothrin seed treatment formulation was prepared by diluting the WARRIOR® T insecticide (Zeneca Ag Products, Wilmington, Del.), which contains 11.4% lambda-cyhalothrin as the active ingredient, into water as a carrier. This formulation was applied for one minute at room temperature to twenty-five grams of Pioneer corn seed (Cultivar PN3394) in a rotostatic seed treater at a rate of 125 g, 250 g or 500 g active ingredient (Al) to 100 kg seed. The treated seeds were allowed to sit uncapped for four to twenty-four hours before planting.
(§2) Treated and untreated seeds (Pioneer hybrid PN3394) were planted in a soil mix consisting of Dupo silt loam, 30% Perlite, 20% coarse sand (WB-10 grade) in six groups of tubs (20 in. L×15 in. W×8 in. D). Twelve seeds were planted per tub and three tubs were planted for each treatment regimen. Soil applications of FORCE® 3GR, which contains 3% tefluthrin granule as the active ingredient, were used for two sets of tubs containing untreated seeds. The FORCE 3GR was applied either in-furrow or incorporated into a 5 inch band on the soil surface at the time of planting. The tubs were overhead irrigated until the plants were infested with black cutworm larvae.
The rate of application for the FORCE 3GR was reported in units of grams of the active ingredient per hectare (g/ha), while the rate of application of the WARRIOR T to the seeds was reported in units of grams of the active ingredient per 100 kilograms of the seeds (g/100 kg). Although the conversion of one of these units to the other will vary somewhat according to the type of seed that is being used, the size and weight of the seed, and the density of planting that is used—among other things—an approximate conversion for corn seed can be carried out as follows. Assuming a seed application rate of lambda cyhalothrin of, for example, 125 g/100 kg of seed and a planting density of 15 lbs seed/ac, about 14.7 acres can be planted with 100 kg of the seed. This is an effective application rate of about 8.5 g of lambda cyhalthrin per acre. At 2.47 ac/ha, the seed treatment level of 125 g/100 kg is approximately equivalent to a surface banding treatment at about 21 g/ha.
The corn plants were infested at 12 DAP, which corresponds to late growth stage V1 by placing two black cutworm larvae at ¾ instar on the soil surface near the base of the plant. Plants were rated 3, 7 and 10 days after infestation (DAI) for the number of cut plants, as well as damage from leaf feeding. The percent stand reduction due to plant cutting was calculated by dividing the number of cut plants into the number of plants present at infestation. The foliar feeding injury was evaluated using a rating scale of 1=no damage and 10=complete defoliation.

corn plants = assay: Vigor rating of corn plants at 12 DAP as indication of phytotoxicity from seed or soil treatment (Reference Example 1); conditions: rating 1 extremely low vigor, 10 highest
Protocol: as §1, §2
At twelve days after planting (DAP) but before infestation, the overall health of each plant was rated by looking at emergence, height and appearance. This vigor rating gives an indication of any phytotoxicity from the seed or soil treatment. A rating of 1 indicates extremely low. vigor while 10 is the highest vigor rating.

black cutworm larvae [2] = assay: Protection of corn plants against black cutworm damage by seed treatment with tefluthrin, clothianidin and combinations; Colby synergy (Example 2); conditions: for STAND REDUCTION (% at 10 days): 10 DAI; for Percent of Control: stand reduction as percent of untreated control
Protocol: This example illustrates the efficacy of corn seed treatment with a combination of tefluthrin and clothianidin against plant damage by black cutworm.
Seed treatment formulations were prepared from RAZE® 2.5 FS formulation (available from Wilbur-Ellis Co.) containing 26.8% tefluthrin, and clothianidin, (E)-(N-[(2-chloro-5-thiazolyl)methyl]-N′-methyl-N″-nitroguanidine; CAS Registry number 210880-92-5. In addition, separate seed treatment formulations were prepared from each of the two insecticides alone. Corn seed was prepared and treated as described in Reference Example 1, except that the treatment levels of the active ingredients on the seeds was as shown in Table 3. Treated and untreated seeds were planted in tubs and cultivated as described in Example 1. The tubs were overhead irrigated until the plants were infested with black cutworm larvae.
The corn plants were infested at 12 DAP, as described in Reference Example 1, Plants were rated at 10 days after infestation (DAI) for the number of cut plants. The percent stand reduction due to plant cutting was calculated by dividing the number of cut plants into the number of plants present at infestation.
Whether a combination of insecticides provided synergy in protection against cutworm damage was calculated as described by Colby, Robert. S., in Weeds, 15(1):20-22 (1967). The threshold value (stated as % of control) for synergy of a combination was calculated as =(% of control for treatment A)*(% of control for treatment B)/100(n−1); where n=number of active ingredients in combination. A measured % of control value that is less than the threshold value indicates synergy of the combination. Threshold values for synergy were calculated for each of the combinations of Table 3, and the threshold values for synergy of combinations of the active ingredients at various levels are shown in Table 4.

[3] = seed treatment 125 g/100 kg seed
[4] = seed treatment 250 g/100 kg seed
[5] = seed treatment 500 g/100 kg seed

Cc1c(F)c(F)c(COC(=O)[C@@H]2[C@H](/C=C(\Cl)C(F)(F)F)C2(C)C)c(F)c1F (racemic) [Tefluthrin, (2,3,5,6-tetrafluoro-4-methylphenyl)-methyl-(1 alpha, 3 alpha)-(Z)-(±)-3-(2-chloro-3,3,3-trifluoro-1-propenyl)-2,2-dimethylcyclopropanecarboxylate]
Plant Defol. 3 DAI (black cutworm larvae [1]; banded 30 g/ha (FORCE 3GR)): 1.7 | % Stand Reduct'n 7 DAI (black cutworm larvae [1]; banded 30 g/ha (FORCE 3GR)): 0.0% | Plant Defol. 7 DAI (black cutworm larvae [1]; banded 30 g/ha (FORCE 3GR)): 1.7 | % Stand Reduct'n 10 DAI (black cutworm larvae [1]; banded 30 g/ha (FORCE 3GR)): 0.0% | Plant Defol. 10 DAI (black cutworm larvae [1]; banded 30 g/ha (FORCE 3GR)): 0.3 | % Stand Reduct'n 3 DAI (black cutworm larvae [1]; banded 30 g/ha (FORCE 3GR, 5 inch soil surface band)): 0.0% | Plant Defol. 3 DAI (black cutworm larvae [1]; in-furrow 30 g/ha (FORCE 3GR)): 5.0 | % Stand Reduct'n 7 DAI (black cutworm larvae [1]; in-furrow 30 g/ha (FORCE 3GR)): 48.0% | Plant Defol. 7 DAI (black cutworm larvae [1]; in-furrow 30 g/ha (FORCE 3GR)): 6.0 | % Stand Reduct'n 10 DAI (black cutworm larvae [1]; in-furrow 30 g/ha (FORCE 3GR)): 48.0% | Plant Defol. 10 DAI (black cutworm larvae [1]; in-furrow 30 g/ha (FORCE 3GR)): 5.3 | Vigor at 12 DAP (corn plants; soil granule (FORCE 3GR) banded 30 g/ha): 8.7 | Vigor at 12 DAP (corn plants; soil granule (FORCE 3GR) in-furrow 30 g/ha): 9.0

CN/C(=N\[N+](=O)[O-])NCc1cnc(Cl)s1 [Clothianidin, (E)-1-(2-chloro-1,3-thiazol-5-ylmethyl)-3-methyl-2-nitroguanidine]
STAND REDUCTION (% at 10 days) (black cutworm larvae [2]; seed treatment clothianidin 50 gm/100 kg seed): 61.15% | STAND REDUCTION (% at 10 days) (black cutworm larvae [2]; seed treatment clothianidin 100 gm/100 kg seed): 34.38% | Percent of Control (black cutworm larvae [2]; clothianidin 50 gm/100 kg seed): 61.2% | Percent of Control (black cutworm larvae [2]; clothianidin 100 gm/100 kg seed): 34.4%

CC1(C)[C@H](C(=O)O[C@H](C#N)c2cccc(Oc3ccccc3)c2)[C@@H]1/C=C(\Cl)C(F)(F)F [λ-cyhalothrin, [1 alpha (s), 3 alpha(z)]-cyano(3-phenoxyphenyl)methyl-3-(2-chloro-3,3,3-trifluoro-1-propenyl)-2,2-dimethylcyclopropane carboxylate]
Plant Defol. 3 DAI (black cutworm larvae [1]; [3]): 4.3 | Plant Defol. 7 DAI (black cutworm larvae [1]; [3]): 5.0 | Plant Defol. 10 DAI (black cutworm larvae [1]; [3]): 3.3 | % Stand Reduct'n 3 DAI (black cutworm larvae [1]; [4]): 3.0% | Plant Defol. 3 DAI (black cutworm larvae [1]; [4]): 3.7 | % Stand Reduct'n 7 DAI (black cutworm larvae [1]; [4]): 3.0% | % Stand Reduct'n 7 DAI (black cutworm larvae [1]; seed treatment 250 g/100 kg seed, listed as lambda-cyhalothrin): 3% | Plant Defol. 7 DAI (black cutworm larvae [1]; [4]): 2.7 | % Stand Reduct'n 10 DAI (black cutworm larvae [1]; [4]): 3.0% | Plant Defol. 10 DAI (black cutworm larvae [1]; [4]): 1.7 | % Stand Reduct'n 3 DAI (black cutworm larvae [1]; [5]): 0.0% | Plant Defol. 3 DAI (black cutworm larvae [1]; [5]): 2.0 | % Stand Reduct'n 7 DAI (black cutworm larvae [1]; [5]): 0.0% | % Stand Reduct'n 7 DAI (black cutworm larvae [1]; seed treatment 500 g/100 kg seed, listed as lambda-cyhalothrin): 0% | Plant Defol. 7 DAI (black cutworm larvae [1]; [5]): 2.3 | % Stand Reduct'n 10 DAI (black cutworm larvae [1]; [5]): 0.0% | Plant Defol. 10 DAI (black cutworm larvae [1]; [5]): 1.0 | Vigor at 12 DAP (corn plants; seed treatment 125 g AI/100 kg corn seed): 9.0 | Vigor at 12 DAP (corn plants; seed treatment 250 g AI/100 kg corn seed): 8.3 | Vigor at 12 DAP (corn plants; seed treatment 500 g AI/100 kg corn seed): 8.3
